Here are results for six compounds from patent US20260272801A1, “BIOCATALYTIC SYNTHESIS OF UNNATURAL MYCOSPORINE-LIKE AMINO ACIDS” (University of Florida Research Foundation, Incorporated, priority 2022, published 2026).

“Also recorded” adds a separate entry of the source.

One data set has as its system MysD. In words: In vitro MysD reaction with amino acid substrates (LC-HRMS detection of MAA products). In kind it is biochemical, Nostoc linckia NIES-25. To be noted: 5 mM amino acid, 50 uM mycosporine-glycine, 5 mM ATP, 0.5 uM MysD, pH 8.0, room temperature, 4 hours. The method, then:
The reaction solution contained 50 mM HEPES, pH 8.0, 10 mM MgCl2, 50 uM mycosporine-glycine (MG), 5 mM amino acid substrates, and 5 mM ATP. The reactions were initiated by adding 0.5 uM MysD and then carried out at room temperature for 4 hours. The reactions were then terminated and centrifuged.
In Vitro MysD Reactions. MG was purified from extracts of E. coli expressing MysAB2C by HPLC and used as the substrate for the MysD reactions. The quality of MG was calculated based on its extinction coefficient (28,100 M^−1cm^−1). The MysD reactions included MG (50 μM), Mg^2+ (10 mM), unnatural amino acid substrates (5 mM), and ATP (5 mM) in 50 mM HEPES, pH 8.0. The reactions were initiated by adding MysD (0.5 μM) and then incubated at room temperature for 4 hours. All reactions were quenched by heat inactivation at 95° C. for 10 min. After centrifugation at 20,000×g for 15 min, the clear supernatants were collected for LC-HRMS analysis.
The reactions were terminated and then analyzed in the HPLC and/or LC-MS analysis.
HPLC and LC-MS Analysis. Samples were analyzed on a Shimadzu Prominence UHPLC system (Kyoto, Japan) coupled with a PDA detector. Unless stated elsewhere, the following HPLC procedure was performed. The compounds were separated on a Phenomenex Luna C8 column (4.6×250 mm, 5 μm) using the following HPLC program: 2% B for 15 min, 2-90% B gradient in 2 min, 90% B in 2 min, 90-2% in 2 min, and re-equilibration in 2% B for 6 min. The A phase was water with 0.1% formic acid and the B phase was methanol. The flow rate was set at 0.5 mL/min. LC-HRMS and HRMS/MS experiments were conducted on a Thermo Scientific Q Exactive Focus mass spectrometer with a Dionex Ultimate RSLC 3000 uHPLC system, equipped with the H-ESI II probe on an Ion Max API Source. Methanol (B)/water (A) containing 0.1% formic acid were used as mobile phases. The eluents from the first 3 min were diverted to waste by a diverting valve. MS1 signals were acquired under the Full MS positive ion mode, covering a mass range of m/z 150-2000, with resolution at 35 000 and AGC target at 1×10^6.

For data set [1] the following is noted: cited from earlier work.

`NC[C@@H](N)C(=O)O` [(R)-2,3-diaminopropionic acid]: the “use as amino acid substrate by MysD to produce MAA products” value in the data set on MysD is “not able to take”. On to `NC[C@H](N)C(=O)O` [(S)-2,3-diaminopropionic acid], for which the “use as amino acid substrate by MysD to produce MAA products” value with MysD is “could be used by MysD”. On the same count and under the same terms, next, `C=C[C@H](N)C(=O)O` [(S)-2-aminobut-3-enoic acid]: “could be used by MysD”. On the same count and under the same terms, next, `C[C@@H](O)[C@H](N)C(=O)O` [L-threonine]: “could be used by MysD; also recorded: best substrate”. Turning to `COC1=C(NCC(=O)O)C[C@@](O)(CO)CC1=O` [MG, mycosporine-glycine], in data set [1] (used to calculate the quantity of MG), the extinction coefficient is listed as 28,100 M^−1cm^−1. With `COC1=C(NCC(=O)O)C[C@@](O)(CO)CC1=N[C@H](C(=O)O)[C@@H](C)O` [porphyra-334], the maximal absorption wavelength in data set [1] (natural MAA given as comparison value) is recorded as 334 nm.
